Test results reported in ChEMBL document CHEMBL3525983, “Pharmacokinetics, metabolism, and disposition of rivoglitazone, a novel peroxisome proliferator-activated receptor γ agonist, in rats and monkeys” (Drug Metab Dispos, 2011).

Key:
[1] = Retention time of the compound by LC-MS/MS analysis; type: physicochemical; parameters: dosed compound name [14C]Rivoglitazone
[2] = Drug excretion in F344/DuCrlCrlj rat urine/feces treated with [14C]rivoglitazone at 1 mg/kg, po administered via gavage measured during 0 to 48 hrs by radio-HPLC analysis; type: ADME, organism-based; parameters: dose 1 mg/kg, dosed compound name [14C]Rivoglitazone, route oral; conditions: in vivo
[3] = Drug excretion in F344/DuCrlCrlj rat urine/bile treated with [14C]rivoglitazone at 1 mg/kg, po administered via gavage measured during 0 to 48 hrs by radio-HPLC analysis; type: ADME, organism-based; parameters: dose 1 mg/kg, dosed compound name [14C]Rivoglitazone, route oral; conditions: in vivo
[4] = Drug excretion in monkey feces treated with [14C]rivoglitazone at 1 mg/kg, po administered via gavage measured during 0 to 72 hrs by radio-HPLC analysis; type: ADME, organism-based, Macaca mulatta; parameters: dose 1 mg/kg, dosed compound name [14C]Rivoglitazone, route oral; conditions: rhesus monkey, in vivo
Rhesus monkey = assay: Drug level in monkey plasma treated with [14C]rivoglitazone assessed as ratio of molar basis AUC (0 to t) at 1 mg/kg, po administered via gavage by LC-MS/MS analysis; type: ADME, organism-based, Macaca mulatta; parameters: dose 1 mg/kg, dosed compound name [14C]Rivoglitazone, route oral; conditions: in vivo
[5] = Drug excretion in F344/DuCrlCrlj rat feces treated with [14C]rivoglitazone at 1 mg/kg, po administered via gavage measured during 0 to 48 hrs by radio-HPLC analysis; type: ADME, organism-based; parameters: dose 1 mg/kg, dosed compound name [14C]Rivoglitazone, route oral; conditions: in vivo
Rattus norvegicus = assay: Drug level in F344/DuCrlCrlj rat plasma treated with [14C]rivoglitazone assessed as ratio of molar basis AUC (0 to t) at 1 mg/kg, po administered via gavage by LC-MS/MS analysis; type: ADME, organism-based; parameters: dose 1 mg/kg, dosed compound name [14C]Rivoglitazone, route oral; conditions: in vivo
[6] = Drug excretion in monkey urine/feces treated with [14C]rivoglitazone at 1 mg/kg, po administered via gavage measured during 0 to 72 hrs by radio-HPLC analysis; type: ADME, organism-based, Macaca mulatta; parameters: dose 1 mg/kg, dosed compound name [14C]Rivoglitazone, route oral; conditions: rhesus monkey, in vivo
[7] = Drug excretion in F344/DuCrlCrlj rat bile treated with [14C]rivoglitazone at 1 mg/kg, po administered via gavage measured during 0 to 48 hrs by radio-HPLC analysis; type: ADME, organism-based; parameters: dose 1 mg/kg, dosed compound name [14C]Rivoglitazone, route oral; conditions: in vivo
[8] = Drug excretion in F344/DuCrlCrlj rat urine treated with [14C]rivoglitazone at 1 mg/kg, po administered via gavage measured during 0 to 48 hrs by radio-HPLC analysis; type: ADME, organism-based; parameters: dose 1 mg/kg, dosed compound name [14C]Rivoglitazone, route oral; conditions: in vivo
[9] = Drug excretion in monkey urine treated with [14C]rivoglitazone at 1 mg/kg, po administered via gavage measured during 0 to 72 hrs by radio-HPLC analysis; type: ADME, organism-based, Macaca mulatta; parameters: dose 1 mg/kg, dosed compound name [14C]Rivoglitazone, route oral; conditions: rhesus monkey, in vivo

Row | SMILES | Retention_time [1] | Compound recovery [2] | Compound recovery [3] | Compound recovery [4] | AUCmet/AUCp (Rhesus monkey) | Compound recovery [5] | AUCmet/AUCp (Rattus norvegicus) | Compound recovery [6] | Compound recovery [7] | Compound recovery [8] | Compound recovery [9]
1 | COc1ccc2nc(COc3ccc(CC(SC)C(=O)O)cc3)n(C)c2c1 (configuration not stated) | 24.1 min | 3% | metabolite_not_detected | 0.8% | 0.25% | 3% | 0.01% | 0.8% |  |  | 
2 | Cn1c(COc2ccc(CC3SC(=O)NC3=O)cc2)nc2ccc(O)cc21 (configuration not stated) | 19 min | 25.6% | metabolite_not_detected | 18% | 1.22% | 25.6% | 0.72% | 18% |  |  | 
3 | COc1ccc2nc(COc3ccc(CC(C(N)=O)[S+](C)[O-])cc3)n(C)c2c1 (configuration not stated) | 16.1 min | 3.9% | 4.5% |  | 0.11% | metabolite_not_detected | 0.08% |  | 0.6% | 3.9% | 
4 | O=C1NC(=O)C(Cc2ccc(OCc3nc4ccc(O)cc4[nH]3)cc2)S1 (configuration not stated) | 17.8 min |  |  |  | 0.28% |  |  | 3.8% |  |  | 3.8%
5 | CSC(Cc1ccc(OCc2nc3ccc(O)cc3n2C)cc1)C(N)=O (configuration not stated) | 16.9 min | 8.7% | metabolite_not_detected | 2.9% |  | 8.7% |  | 2.9% |  |  | 
6 | COc1ccc2nc(COc3ccc(CC(C(N)=O)S(C)(=O)=O)cc3)n(C)c2c1 (configuration not stated) | 18.1 min | 1% | 2% |  | 0.08% | metabolite_not_detected | 0.02% | 1.3% | 1% | 1% | 1.3%
7 | Cn1c(COc2ccc(CC3SC(=O)NC3=O)cc2)nc2ccc(O[C@@H]3O[C@H](C(=O)O)[C@@H](O)[C@H](O)[C@H]3O)cc21 (some centres not stated) | 15.1 min |  | 1.5% |  |  | metabolite_not_detected |  | 2.6% | 1.5% |  | 2.6%
8 | COc1ccc2nc(COc3ccc(CC(SC)C(N)=O)cc3)n(C)c2c1 (configuration not stated) | 20.9 min |  |  |  | 0.05% |  | 0.01% |  |  |  | 
9 | COc1ccc2nc(COc3ccc(CC(SSCC(N)C(=O)O)C(=O)O)cc3)n(C)c2c1 (configuration not stated) | 16.8 min |  |  |  | 0.03% |  |  |  |  |  | 
10 | Cn1c(COc2ccc(CC(SC(=O)N[C@@H]3O[C@H](C(=O)O)[C@@H](O)[C@H](O)[C@H]3O)C(=O)O)cc2)nc2ccc(O)cc21 (some centres not stated) | 13.9 min |  |  |  |  |  |  |  |  |  | 
11 | CSC(Cc1ccc(OCc2nc3ccc(O[C@@H]4O[C@H](C(=O)O)[C@@H](O)[C@H](O)[C@H]4O)cc3n2C)cc1)C(N)=O (some centres not stated) | 12.9 min | 0.7% | 3.5% |  |  | metabolite_not_detected |  | 1.2% | 2.8% | 0.7% | 1.2%
12 | COc1ccc2nc(COc3ccc(CC4SC(=O)N([C@@H]5O[C@H](C(=O)O)[C@@H](O)[C@H](O)[C@H]5O)C4=O)cc3)n(C)c2c1 (some centres not stated) | 19.8 min |  | 1% |  | 2.15% | metabolite_not_detected |  | 1.4% | 1% |  | 1.4%
13 | COc1ccc2nc(COc3ccc(CC4(O)SC(=O)NC4=O)cc3)n(C)c2c1 (configuration not stated) | 21.3 min |  |  | 1.7% | 0.02% |  | 0.03% | 2.1% |  |  | 0.4%
14 | COc1ccc2nc(COc3ccc(CC4SC(=O)NC4=O)cc3)[nH]c2c1 (configuration not stated) | 21.5 min |  |  |  | 7.01% |  | 0.02% |  |  |  | 
15 | Cn1c(COc2ccc(CC(C(N)=O)[S+](C)[O-])cc2)nc2ccc(OS(=O)(=O)O)cc21 (configuration not stated) | 9.9 min |  | 3.8% |  |  | metabolite_not_detected |  |  | 3.8% |  | 
16 | COc1ccc2nc(COc3ccc(CC(SC(=O)N[C@@H]4O[C@H](C(=O)O)[C@@H](O)[C@H](O)[C@H]4O)C(=O)O)cc3)n(C)c2c1 (some centres not stated) | 17.2 min |  |  | 6.6% | 1.53% |  |  | 6.6% |  |  | 
17 | Cn1c(COc2ccc(CC(C(N)=O)S(C)(=O)=O)cc2)nc2ccc(OS(=O)(=O)O)cc21 (configuration not stated) | 13.8 min |  | 1.3% |  |  | metabolite_not_detected |  |  | 1.3% |  | 
